For two compounds, Concentration and conc/live cell results are on record in US20230146455A1, “TREATMENT OF INFLAMMATORY DISEASES WITH PEPTIDES AND PHARMACEUTICAL COMPOSITIONS” (Yuyu Pharma, Inc., priority 2020, published 2023).

Where “and” joins values, the source holds several entries; their conditions need not be identical. Equal entries are not always repeated. Where a SMILES comes first, the peptide text is derived from it. [ ]: non-standard residue; d: D form. Hyp = O=C(O)[C@@H]1C[C@@H](O)CN1

In this assay the test system is IL-1 alpha. As to the kind of experiment: Example 9 Luminex, LPS hPBMCs: IL-1 alpha. Format: cell-based, human. The settings on record: IL-1 alpha, replicates and Mean. As to the method: Treatment Human PBMCs were pretreated with YY-101, YDE-011 and YDE-043 or reference compound; Xiidra® at various concentration (ranging from 1 nM to 100 uM) for 2 h before stimulation. An equal volume of 0.5% DMSO was used as a vehicle control. Then, the cells were treated with LPS at 5 ug/ml. The supernatants from treated cells were harvested at 24 h and placed in a 96 well for Luminex cytokine & chemokine profiling using a Luminex 200 multiplex assay (Luminex; R&D system, USA).
The main study arm with triplicate wells per group in a 24-well plate: • 1. Blank • 2. PBMC: 0.5% DMSO • 3. PBMC+LPS (5 ug/ml) • 4. PBMC+YY-101 100 uM • 5. PBMC+YY-101 10 uM • 6. PBMC+YY-101 1 uM • 7. PBMC+YY-101 0.1 uM • 8. PBMC+YY-101 0.01 uM • 9. PBMC+LPS (5 ug/ml)+Xiidra®100 uM • 10. PBMC+LPS (5 ug/ml)+Xiidra® 10 uM • 11. PBMC+LPS (5 ug/ml)+Xiidra® 1 uM • 12. PBMC+LPS (5 ug/ml)+Xiidra®0.1 uM • 13. PBMC+LPS (5 ug/ml)+Xiidra®0.01 uM • 14. PBMC+LPS (5 ug/ml)+Xiidra®0.001 uM • 15. PBMC+LPS (5 ug/ml)+YY-101 100 uM • 16. PBMC+LPS (5 ug/ml)+YY-101 10 uM • 17. PBMC+LPS (5 ug/ml)+YY-101 1 uM • 18. PBMC+LPS (5 ug/ml)+YY-101 0.1 uM • 19. PBMC+LPS (5 ug/ml)+YY-101 0.01 uM • 20. PBMC+LPS (5 ug/ml)+YY-101 0.001 uM • 21. PBMC+LPS (5 ug/ml)+YDE-011 100 uM • 22. PBMC+LPS (5 ug/ml)+YDE-011 10 uM • 23. PBMC+LPS (5 ug/ml)+YDE-011 1 uM • 24. PBMC+LPS (5 ug/ml)+YDE-011 0.1 uM • 25. PBMC+LPS (5 ug/ml)+YDE-011 0.01 uM • 26. PBMC+LPS (5 ug/ml)+YDE-011 0.001 uM • 27. PBMC+LPS (5 ug/ml)+YDE-043 100 uM • 28. PBMC+LPS (5 ug/ml)+YDE-043 10 uM • 29. PBMC+LPS (5 ug/ml)+YDE-043 1 uM • 30. PBMC+LPS (5 ug/ml)+YDE-043 0.1 uM • 31. PBMC+LPS (5 ug/ml)+YDE-043 0.01 uM • 32. PBMC+LPS (5 ug/ml)+YDE-043 0.001 uM
Multiplex assay was used to measure 30 cytokines and chemokines. The 1:2, 1:10 and 1:200 diluted cell supernatant and serial dilution of the standard were dispensed into a 96 well plate at 50 ul/well. Then, the pre-mixed cocktail of antibody-coated magnetic beads was dispensed at 50 ul/well and incubated at room temperature for 2 h in a horizontal orbital microplate shaker at 800±500 rpm. The beads were washed using a magnetic device to prevent loss. The biotin-antibody was dispensed in 50 ul of each well and incubated at room temperature for 1 h in a shaker at 800±500 rpm. After washing, streptavidin-PE was added at 50 ul/well and incubated at room temperature for 30 min in a shaker under the same conditions. Finally, after washing, wash buffer (100 ul/well) was added to the plate and incubated in a shaker for 2 min. The Luminex™ 200 setting were set according to the manufacturer's protocol. The data was calculated with a standard five-parameter logistic nonlinear regression analysis of the data (xPonent software 4.2, USA). The levels of cytokine/chemokine are normalized to the live cell counts (1×10^5 cells/mL) and presented as concentrations per mL (pg/mL or ng/mL).

[1] abbreviates: PBMC + LPS(5 ug/ml) + YDE011 0.001 uM.
Where [2] appears, read: PBMC + LPS(5 ug/ml) + YDE011 0.001 uM, mean.
The mark [3] stands for this setting: PBMC + LPS(5 ug/ml) + YDE011 0.01 uM.
The mark [4] stands for this setting: PBMC + LPS(5 ug/ml) + YDE011 0.01 uM, mean.
[5] abbreviates: PBMC + LPS(5 ug/ml) + YDE011 0.1 uM.
Where [6] appears, read: PBMC + LPS(5 ug/ml) + YDE011 0.1 uM, mean.
The mark [7] stands for this setting: PBMC + LPS(5 ug/ml) + YDE011 1 uM.
Setting [8] is: PBMC + LPS(5 ug/ml) + YDE011 1 uM, mean.
The mark [9] stands for this setting: PBMC + LPS(5 ug/ml) + YDE011 10 uM.
The mark [10] stands for this setting: PBMC + LPS(5 ug/ml) + YDE011 10 uM, mean.
Where [11] appears, read: PBMC + LPS(5 ug/ml) + YDE011 100 uM.
[12] abbreviates: PBMC + LPS(5 ug/ml) + YDE011 100 uM, mean.
Setting [13] is: PBMC + LPS(5 ug/ml) + YDE043 0.001 uM.
Where [14] appears, read: PBMC + LPS(5 ug/ml) + YDE043 0.001 uM, mean.
The mark [15] stands for this setting: PBMC + LPS(5 ug/ml) + YDE043 0.01 uM.
Setting [16] is: PBMC + LPS(5 ug/ml) + YDE043 0.01 uM, mean.
Setting [17] is: PBMC + LPS(5 ug/ml) + YDE043 0.1 uM.
Setting [18] is: PBMC + LPS(5 ug/ml) + YDE043 0.1 uM, mean.
Setting [19] is: PBMC + LPS(5 ug/ml) + YDE043 1 uM.
The mark [20] stands for this setting: PBMC + LPS(5 ug/ml) + YDE043 1 uM, mean.
The mark [21] stands for this setting: PBMC + LPS(5 ug/ml) + YDE043 10 uM.
[22] abbreviates: PBMC + LPS(5 ug/ml) + YDE043 10 uM, mean.
Setting [23] is: PBMC + LPS(5 ug/ml) + YDE043 100 uM.
The mark [24] stands for this setting: PBMC + LPS(5 ug/ml) + YDE043 100 uM, mean.

As for `CC(C)C[C@H](NC(=O)CNC(=O)[C@H](CC(C)C)NC(=O)[C@H](CCC(N)=O)NC(=O)CNC(=O)[C@@H]1C[C@@H](O)CN1)C(=O)N[C@@H](C)C(=O)NCC(=O)N1CCC[C@H]1C(=O)N[C@@H](CCCCN)C(=O)O` [YDE-011] (H-[Hyp]GQLGLAGPK-OH), the Concentration under setting [1] was 336.1 pg/mL and 335.4 pg/mL and 361.1 pg/mL; the Concentration under setting [2] came to 344.2 pg/mL; the Concentration under setting [3] is 359.2 pg/mL and 381.8 pg/mL and 342.8 pg/mL; the Concentration under setting [4] was determined as 361.3 pg/mL; the Concentration under setting [5] was 332.4 pg/mL and 312.9 pg/mL and 347.3 pg/mL; the Concentration under setting [6] was 330.9 pg/mL. Besides, the Concentration under setting [7] is 349.2 pg/mL and 321.1 pg/mL and 345.8 pg/mL; the Concentration under setting [8] is 338.7 pg/mL; the Concentration under setting [9] is 356.2 pg/mL and 327.9 pg/mL and 345.8 pg/mL; the Concentration under setting [10] came to 343.3 pg/mL; the Concentration under setting [11] was 446.4 pg/mL and 402.2 pg/mL and 436.1 pg/mL; the Concentration under setting [12] turned out to be 428.2 pg/mL. Also, the conc/live cell is 74.7 pg/10^5 and 57.8 pg/10^5 and 62.3 pg/10^5 under setting [1]; 64.9 pg/10^5 under setting [2]; 57.9 pg/10^5 and 74.9 pg/10^5 and 54.4 pg/10^5 under setting [3]; 62.4 pg/10^5 under setting [4]; 50.4 pg/10^5 and 62.6 pg/10^5 and 60.9 pg/10^5 under setting [5]; 58.0 pg/10^5 under setting [6]. Besides, the conc/live cell under setting [7] is 63.5 pg/10^5 and 66.9 pg/10^5 and 72.0 pg/10^5; the conc/live cell under setting [8] was determined as 67.5 pg/10^5; the conc/live cell under setting [9] is 66.0 pg/10^5 and 56.5 pg/10^5 and 73.6 pg/10^5; the conc/live cell under setting [10] was 65.4 pg/10^5; the conc/live cell under setting [11] was 73.2 pg/10^5 and 65.9 pg/10^5 and 72.7 pg/10^5; the conc/live cell under setting [12] worked out at 70.6 pg/10^5.

For the compound `CC(C)C[C@H](NC(=O)[C@H](CCC(N)=O)NC(=O)CNC(=O)[C@@H]1C[C@@H](O)CN1)C(=O)NCC(=O)O` [YDE-043] (H-[Hyp]GQLG-OH; N-terminus and C-terminus assumed), the Concentration was 339.1 pg/mL and 369.6 pg/mL and 357.7 pg/mL under setting [13]; 355.5 pg/mL under setting [14]; 352.5 pg/mL and 342.5 pg/mL and 370.4 pg/mL under setting [15]; 355.1 pg/mL under setting [16]; 361.4 pg/mL and 329.0 pg/mL and 382.6 pg/mL under setting [17]; 357.7 pg/mL under setting [18]. Also, the Concentration is 344.7 pg/mL and 332.4 pg/mL and 338.7 pg/mL under setting [19]; 338.6 pg/mL under setting [20]; 357.4 pg/mL and 342.1 pg/mL and 351.0 pg/mL under setting [21]; 350.2 pg/mL under setting [22]; 454.5 pg/mL and 414.4 pg/mL under setting [23]; 434.4 pg/mL under setting [24]. For the same compound, the conc/live cell was 77.1 pg/10^5 and 61.6 pg/10^5 and 77.8 pg/10^5 under setting [13]; 72.1 pg/10^5 under setting [14]; 78.3 pg/10^5 and 51.9 pg/10^5 and 74.1 pg/10^5 under setting [15]; 68.1 pg/10^5 under setting [16]; 72.3 pg/10^5 and 58.8 pg/10^5 and 68.3 pg/10^5 under setting [17]; 66.5 pg/10^5 under setting [18]. The conc/live cell is 59.4 pg/10^5 and 69.2 pg/10^5 and 63.9 pg/10^5 under setting [19]; 64.2 pg/10^5 under setting [20]; 68.7 pg/10^5 and 63.3 pg/10^5 and 62.7 pg/10^5 under setting [21]; 64.9 pg/10^5 under setting [22]; 73.3 pg/10^5 and 64.7 pg/10^5 under setting [23]; 69.0 pg/10^5 under setting [24].
